In the supplement of paper PMC11061612:

Experiments:
Test in all cases: combination Emax (second highest fraction inhibited in the dose matrix, 72 h); higher = more inhibition; extreme values may be limits of the assay
[1] = tested on: C-33-A (Cervical Carcinoma)
Procedure, shortened: (§1)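 After 24 hours at 37°C and 5% CO2 in 1536-well plates, cells in DMEM/F12 or RPMI plus 10% FBS received two-drug dose matrices for 72 hours. Viability came from CellTiter-Glo 2.0 luminescence and was scaled as inhibition, anchored at 0 by vehicle wells and at 1 by blank wells. Combination Emax is taken as the second-highest inhibition in the matrix, and Bliss excess as the observed combination effect less EA + EB − EA·EB, with EA and EB the single-agent effects.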

[2] = tested on: CPC-N (Small Cell Lung Carcinoma)
Procedure, shortened: as §1

[3] = tested on: DBTRG-05MG (Glioblastoma)
Procedure, shortened: as §1

[4] = tested on: KP-4 (Pancreatic Carcinoma)
Procedure, shortened: as §1

[5] = tested on: MS-1 (Small Cell Lung Carcinoma)
Procedure, shortened: as §1

[6] = tested on: NAMALWA (Burkitt's Lymphoma)
Procedure, shortened: as §1

[7] = tested on: NCI-H1963 (Small Cell Lung Carcinoma)
Procedure, shortened: as §1

NCI-H226 (Mesothelioma) = tested on: NCI-H226 (Mesothelioma)
Procedure, shortened: as §1

[8] = tested on: NMC-G1 (Low Grade Glioma)
Procedure, shortened: as §1

[9] = tested on: OAW-28 (Ovarian Carcinoma)
Procedure, shortened: as §1

[10] = tested on: P30-OHK (B-Lymphoblastic Leukemia)
Procedure, shortened: as §1

[11] = tested on: PA-TU-8988T (Pancreatic Carcinoma)
Procedure, shortened: as §1

[12] = tested on: Raji (Burkitt's Lymphoma)
Procedure, shortened: as §1

[13] = tested on: SAT (Head and Neck Carcinoma)
Procedure, shortened: as §1

[14] = tested on: SCC-4 (Oral Cavity Carcinoma)
Procedure, shortened: as §1

SK-N-SH (Neuroblastoma) = tested on: SK-N-SH (Neuroblastoma)
Procedure, shortened: as §1

[15] = tested on: T84 (Colorectal Carcinoma)
Procedure, shortened: as §1

[16] = tested on: TUR (Acute Myeloid Leukemia)
Procedure, shortened: as §1

WM35 (Melanoma) = tested on: WM35 (Melanoma)
Procedure, shortened: as §1

[17] = tested on: ZR-75-30 (Breast Carcinoma)
Procedure, shortened: as §1

Row | SMILES | combination Emax [1] | combination Emax [2] | combination Emax [3] | combination Emax [4] | combination Emax [5] | combination Emax [6] | combination Emax [7] | combination Emax (NCI-H226 (Mesothelioma)) | combination Emax [8] | combination Emax [9] | combination Emax [10] | combination Emax [11] | combination Emax [12] | combination Emax [13] | combination Emax [14] | combination Emax (SK-N-SH (Neuroblastoma)) | combination Emax [15] | combination Emax [16] | combination Emax (WM35 (Melanoma)) | combination Emax [17]
1 | Cc1c2c(nn1C)CSCc1cc(n(C)n1)CSc1cc(c3ccccc3c1)OCCCc1c(C(=O)O)n(C)c3c-2c(Cl)ccc13 [AZD5991] + CC1(C)CCC(CN2CCN(c3ccc(C(=O)NS(=O)(=O)c4ccc(NCC5CCOCC5)c([N+](=O)[O-])c4)c(Oc4cnc5[nH]ccc5c4)c3)CC2)=C(c2ccc(Cl)cc2)C1 [Venetoclax] (first compound max 1 µM, 7x7, partner max 1 µM) | 0.484 | 0.289 | 0.158 | 0.157 | 0.76 | 0.994 | 0.824 | 0.196 | 0.157 | 0.687 | 0.996 | 0.151 | 0.682 | 0.703 | 0.345 | 0.921 | 0.142 | 0.637 | 0.243 | 0.779
2 | Cc1c2c(nn1C)CSCc1cc(n(C)n1)CSc1cc(c3ccccc3c1)OCCCc1c(C(=O)O)n(C)c3c-2c(Cl)ccc13 [AZD5991] + CCN(CCO)CCCOc1ccc2c(Nc3cc(CC(=O)Nc4cccc(F)c4)[nH]n3)ncnc2c1 [AZD2811] (first compound max 1 µM, 7x7, partner max 1 µM) | 0.275 | 0.835 | 0.225 | 0.667 | 0.48 | 0.98 | 0.842 | 0.262 | 0.305 | 0.378 | 0.963 | 0.775 | 0.776 | 0.811 | 0.663 | 0.614 | 0.177 | 0.536 | 0.243 | 0.511
3 | Cc1c2c(nn1C)CSCc1cc(n(C)n1)CSc1cc(c3ccccc3c1)OCCCc1c(C(=O)O)n(C)c3c-2c(Cl)ccc13 [AZD5991] + C[C@@H]1COCCN1C2=NC(=NC(=C2)C3(CC3)[S@](=N)(=O)C)C4=C5C=CNC5=NC=C4 [AZD6738] (first compound max 1 µM, 7x7, partner max 10 µM) | 0.923 | 0.874 | 0.232 | 0.501 | 0.826 | 0.997 | 0.885 | 0.193 | 0.377 | 0.52 | 0.996 | 0.345 | 0.974 | 0.79 | 0.755 | 0.961 | 0.669 | 0.99 | 0.343 | 0.429
4 | Cc1c2c(nn1C)CSCc1cc(n(C)n1)CSc1cc(c3ccccc3c1)OCCCc1c(C(=O)O)n(C)c3c-2c(Cl)ccc13 [AZD5991] + C[C@@H](Nc1cc(F)cc(F)c1)c1cc(C(=O)N(C)C)cc2c(=O)cc(N3CCOCC3)oc12 [AZD8186] (first compound max 1 µM, 7x7, partner max 3 µM) | 0.224 | 0.294 | 0.266 | 0.206 | 0.48 | 0.986 | 0.437 | 0.245 | 0.224 | 0.418 | 0.805 | 0.45 | 0.749 | 0.747 | 0.598 | 0.481 | 0.139 | 0.391 | 0.307 | 0.528
5 | Cc1c2c(nn1C)CSCc1cc(n(C)n1)CSc1cc(c3ccccc3c1)OCCCc1c(C(=O)O)n(C)c3c-2c(Cl)ccc13 [AZD5991] + Cc1cc2ncnn2cc1Nc1ncc2c(n1)n(C1CCOCC1)c(=O)n2C [AZD7648] (first compound max 1 µM, 7x7, partner max 10 µM) | 0.416 | 0.245 | 0.214 | 0.263 | 0.564 | 1 | 0.334 | 0.203 | 0.171 | 0.264 | 0.649 | 0.319 | 0.728 | 0.664 | 0.458 | 0.481 | 0.0921 | 0.557 | 0.207 | 0.307
6 | Cc1c2c(nn1C)CSCc1cc(n(C)n1)CSc1cc(c3ccccc3c1)OCCCc1c(C(=O)O)n(C)c3c-2c(Cl)ccc13 [AZD5991] + Cn1cnc2c(F)c(Nc3ccc(Br)cc3Cl)c(C(=O)NOCCO)cc21 [Selumetinib] (first compound max 1 µM, 7x7, partner max 3 µM) | 0.365 | 0.237 | 0.344 | 0.226 | 0.375 | 0.999 | 0.427 | 0.224 | 0.31 | 0.352 | 0.744 | 0.393 | 0.756 | 0.803 | 0.839 | 0.414 | 0.406 | 0.629 | 0.929 | 0.281
7 | Cc1cc2ncnn2cc1Nc1ncc2c(n1)n(C1CCOCC1)c(=O)n2C [AZD7648] + C=CCn1c(=O)c2cnc(Nc3ccc(N4CCN(C)CC4)cc3)nc2n1-c1cccc(C(C)(C)O)n1 [AZD1775] (first compound max 10 µM, partner max 1 µM) | 0.93 | 0.931 | 0.343 | 0.59 | 0.827 | 0.96 | 0.873 | 0.297 | 0.327 | 0.401 | 0.754 | 0.749 | 0.755 | 0.623 | 0.466 | 0.884 | 0.45 | 0.736 | 0.294 | 0.137
8 | Cc1cc2ncnn2cc1Nc1ncc2c(n1)n(C1CCOCC1)c(=O)n2C [AZD7648] + CCN(CCO)CCCOc1ccc2c(Nc3cc(CC(=O)Nc4cccc(F)c4)[nH]n3)ncnc2c1 [AZD2811] (first compound max 10 µM, 7x7, partner max 1 µM) | 0.368 | 0.795 | 0.228 | 0.4 | 0.342 | 0.432 | 0.866 | 0.253 | 0.279 | 0.217 | 0.85 | 0.33 | 0.19 | 0.376 | 0.307 | 0.625 | 0.287 | 0.284 | 0.155 | 0.141
9 | Cc1cc2ncnn2cc1Nc1ncc2c(n1)n(C1CCOCC1)c(=O)n2C [AZD7648] + CN(C)CCCOc1ccc(-c2ccc3ncc4c(c3c2)n(C2CCOCC2)c(=O)n4C)cn1 [AZD0156] (first compound max 10 µM, 7x7, partner max 1 µM) | 0.372 | 0.368 | 0.192 | 0.23 | 0.309 | 0.266 | 0.211 | 0.271 | 0.207 | 0.187 | 0.376 | 0.271 | 0.227 | 0.378 | 0.219 | 0.366 | 0.214 | 0.164 | 0.129 | 0.194
10 | Cc1cc2ncnn2cc1Nc1ncc2c(n1)n(C1CCOCC1)c(=O)n2C [AZD7648] + C[C@@H]1COCCN1C2=NC(=NC(=C2)C3(CC3)[S@](=N)(=O)C)C4=C5C=CNC5=NC=C4 [AZD6738] (first compound max 10 µM, 7x7, partner max 10 µM) | 0.913 | 0.911 | 0.306 | 0.44 | 0.728 | 0.936 | 0.728 | 0.304 | 0.31 | 0.42 | 0.811 | 0.378 | 0.779 | 0.494 | 0.575 | 0.859 | 0.706 | 0.907 | 0.497 | 0.17
11 | Cc1cc2ncnn2cc1Nc1ncc2c(n1)n(C1CCOCC1)c(=O)n2C [AZD7648] + O=C(c1cc(Cc2n[nH]c(=O)c3ccccc23)ccc1F)N1CCN(C(=O)C2CC2)CC1 [Olaparib] (first compound max 10 µM, 7x7, partner max 10 µM) | 0.305 | 0.31 | 0.0842 | 0.181 | 0.399 | 0.578 | 0.299 | 0.149 | 0.18 | 0.188 | 0.364 | 0.339 | 0.396 | 0.164 | 0.259 | 0.444 | 0 | 0.114 | 0.119 | 0.12
12 | COc1cccc2c1C(=O)c1c(O)c3c(c(O)c1C2=O)C[C@@](O)(C(=O)CO)C[C@@H]3O[C@H]1C[C@H](N)[C@H](O)[C@H](C)O1 [Doxorubicin] + Cc1cc2ncnn2cc1Nc1ncc2c(n1)n(C1CCOCC1)c(=O)n2C [AZD7648] (first compound max 1 µM, 7x7, partner max 10 µM) | 0.904 | 0.911 | 0.588 | 0.76 | 0.905 | 0.976 | 0.799 | 0.802 | 0.405 | 0.534 | 0.975 | 0.791 | 0.96 | 0.616 | 0.303 | 0.974 | 0.163 | 0.935 | 0.564 | 0.3
13 | COc1cccc(OCCCN)c1-c1cc(Nc2cnc(C#N)cn2)n[nH]1 [Prexasertib] + C=CCn1c(=O)c2cnc(Nc3ccc(N4CCN(C)CC4)cc3)nc2n1-c1cccc(C(C)(C)O)n1 [AZD1775] (first compound max 1 µM, partner max 1 µM) | 0.985 | 1 | 0.331 | 0.8 | 1 | 0.989 | 1 | 0.393 | 0.384 | 0.569 | 0.98 | 0.898 | 0.977 | 0.666 | 0.665 | 0.939 | 0.861 | 1 | 0.819 | 0.137
